SMILES strings stand for the structures.

For this assay, the target named is T1, human HSL (Homo sapiens, UniProt Q05469).
T1 construct: overlapping PCR to generate a full length human HSL ORF with a 3′-His6 tag; His6 (C); made in house; host or cells: High 5 insect cells (baculovirus, pFast-BAC)
T1 sequence (Q05469 1-1076): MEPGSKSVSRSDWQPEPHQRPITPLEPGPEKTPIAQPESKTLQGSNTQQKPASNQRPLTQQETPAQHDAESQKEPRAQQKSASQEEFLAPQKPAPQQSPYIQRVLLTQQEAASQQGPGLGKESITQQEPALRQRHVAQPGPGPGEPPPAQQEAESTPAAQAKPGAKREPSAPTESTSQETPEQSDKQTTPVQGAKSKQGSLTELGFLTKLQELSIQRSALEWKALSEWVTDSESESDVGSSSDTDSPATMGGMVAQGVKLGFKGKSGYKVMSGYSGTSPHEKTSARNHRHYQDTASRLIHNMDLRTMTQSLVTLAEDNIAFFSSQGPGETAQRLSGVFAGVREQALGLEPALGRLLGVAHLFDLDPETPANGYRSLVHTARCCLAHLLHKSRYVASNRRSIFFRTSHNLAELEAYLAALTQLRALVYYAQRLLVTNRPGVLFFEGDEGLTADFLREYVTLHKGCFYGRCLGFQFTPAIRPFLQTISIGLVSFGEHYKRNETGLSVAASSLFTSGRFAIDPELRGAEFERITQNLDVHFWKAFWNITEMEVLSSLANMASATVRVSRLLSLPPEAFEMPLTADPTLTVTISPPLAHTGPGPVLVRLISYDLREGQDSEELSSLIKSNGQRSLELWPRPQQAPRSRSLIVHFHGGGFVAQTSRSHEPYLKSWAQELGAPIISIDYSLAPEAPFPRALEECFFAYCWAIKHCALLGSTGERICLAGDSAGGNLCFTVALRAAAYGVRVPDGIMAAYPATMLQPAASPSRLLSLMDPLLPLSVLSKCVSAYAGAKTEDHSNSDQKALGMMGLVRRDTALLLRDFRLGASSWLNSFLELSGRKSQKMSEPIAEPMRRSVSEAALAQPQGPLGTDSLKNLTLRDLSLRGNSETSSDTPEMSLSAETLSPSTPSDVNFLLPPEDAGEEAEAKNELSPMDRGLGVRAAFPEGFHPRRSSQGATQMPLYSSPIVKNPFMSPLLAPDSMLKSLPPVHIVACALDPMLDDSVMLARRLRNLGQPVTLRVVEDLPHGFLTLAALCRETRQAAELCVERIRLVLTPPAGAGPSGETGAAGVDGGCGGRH
Put plainly: Human Hormone-Sensitive Lipase (HSL) Enzyme Inhibition Assay. The assay is classed as biochemical. Conditions: colorimetric assay, 2,3-dimercapto-1-propanol tributyrate (DMPT) substrate, 37° C. for 20 minutes, absorbance at 405 nm; read-out: HSL hum IC50. A digest of the protocol: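 Colorimetric thioester hydrolysis: compounds in DMSO series mixed with DMPT (1.5 mM) in MOPS pH 7.2 with BSA, then baculovirus-expressed His6-tagged full-length human HSL added, 37° C, 20 min. DTNB plus detergents added, 15 min room temperature, absorbance at 405 nm.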
As a reminder, the IC50 is the concentration that inhibits the measured activity by half. As for `CC(C)(C)CS(=O)(=O)N1CCC2(CCN(c3ccc(OCCC(F)(F)F)cc3)C2=O)CC1` [Example 139, 8-(Neopentylsulfonyl)-2-(4-(3,3,3-trifluoropropoxy)phenyl)-2,8-diazaspiro[4.5]decan-1-one], the half-inhibitory concentration (IC50) was determined as 310 nM.
For `CC(C)CS(=O)(=O)N1CCC2(CCN(c3ccc(OCC(F)(F)F)cc3)C2=O)CC1` [Example 63, 8-(2-Methyl-propane-1-sulfonyl)-2-[4-(2,2,2-trifluoro-ethoxy)-phenyl]-2,8-diaza-spiro[4.5]decan-1-one] the value was 210 nM; for `O=C(COCc1ccccc1)N1CCC2(CC1)CCN(c1ccc(OC(F)(F)F)cc1)C2=O` [Example 220, 8-(2-Benzyloxy-acetyl)-2-(4-trifluoromethoxy-phenyl)-2,8-diaza-spiro[4.5]decan-1-one], 80 nM.
Then `CN(C(=O)N1CCC2(CC1)CCN(c1ccc(OC(F)(F)F)cc1)C2=O)c1ccc(Cl)c(Cl)c1` [Example 301, 1-Oxo-2-(4-trifluoromethoxy-phenyl)-2,8-diaza-spiro[4.5]decane-8-carboxylic acid (3,4-dichloro-phenyl)-methyl-amide], with 110 nM; and `CCN(C(=O)N1CCC2(CC1)CCN(c1ccc(OC(F)(F)F)cc1)C2=O)C1CCCCC1` [Example 305, 1-Oxo-2-(4-trifluoromethoxy-phenyl)-2,8-diaza-spiro[4.5]decane-8-carboxylic acid cyclohexyl-ethyl-amide], with 140 nM.
Then `CCc1ccc(N2CCC3(CCN(S(=O)(=O)c4ccc(C)s4)CC3)C2=O)cc1` [Example 41, 2-(4-Ethyl-phenyl)-8-(5-methyl-thiophene-2-sulfonyl)-2,8-diaza-spiro[4.5]decan-1-one], with 60 nM.
As to `COc1ccc(CCN2CCC3(CCN(S(=O)(=O)c4ccccc4Cl)CC3)C2=O)cc1` [Example 240, 8-(2-Chloro-benzenesulfonyl)-2-[2-(4-methoxy-phenyl)-ethyl]-2,8-diaza-spiro[4.5]decan-1-one], the half-maximal inhibitory concentration (IC50) amounted to 60 nM.
For `CC(CO)Nc1ncccc1S(=O)(=O)N1CCC2(CCN(c3ccc(OC(F)(F)F)cc3)C2=O)CC1` (stereo not shown) [Example 193, 8-[2-(2-Hydroxy-1-methyl-ethylamino)-pyridine-3-sulfonyl]-2-(4-trifluoromethoxy-phenyl)-2,8-diaza-spiro[4.5]decan-1-one] the value was 60 nM; for `CC(C)(C)CC(=O)N1CCC2(CC1)CCN(c1ccc(OC(F)(F)F)cc1)C2=O` [Example 7, 8-(3,3-Dimethyl-butyryl)-2-(4-trifluoromethoxy-phenyl)-2,8-diaza-spiro[4.5]decan-1-one], 60 nM; for `CC(C)(C)CC(=O)N1CCC2(CC1)CCN(c1ccc(C3CC3)cc1)C2=O` [Example 35, 2-(4-Cyclopropyl-phenyl)-8-(3,3-dimethyl-butyryl)-2,8-diaza-spiro[4.5]decan-1-one], 170 nM.
Then `O=C1N(c2ccc(OC(F)(F)F)cc2)CCC12CCN(S(=O)(=O)c1ccccc1)CC2` [Example 2, 8-Benzenesulfonyl-2-(4-trifluoromethoxy-phenyl)-2,8-diaza-spiro[4.5]decan-1-one], with 40 nM; and `CCC(C)Oc1ccc(N2CCC3(CCN(S(=O)(=O)c4ccccc4OC(F)(F)F)CC3)C2=O)cc1` (stereo not shown) [Example 90, 2-(4-sec-Butoxy-phenyl)-8-(2-trifluoromethoxy-benzenesulfonyl)-2,8-diaza-spiro[4.5]decan-1-one], with 20 nM; and `O=C(N1CCC2(CC1)CCN(c1ccc(OC(F)(F)F)cc1)C2=O)C1(O)CC1` [Example 219, 8-(1-Hydroxy-cyclopropanecarbonyl)-2-(4-trifluoromethoxy-phenyl)-2,8-diaza-spiro[4.5]decan-1-one], with 280 nM.
With `CCCCOc1ccc(N2CCC3(CCN(S(=O)(=O)CC(C)C)CC3)C2=O)cc1` [Example 84, 2-(4-Butoxy-phenyl)-8-(2-methyl-propane-1-sulfonyl)-2,8-diaza-spiro[4.5]decan-1-one], the half-inhibitory concentration (IC50) stood at 200 nM.
For `CCCc1ccc(N2CCC3(CCN(S(=O)(=O)c4ccccc4S(C)(=O)=O)CC3)C2=O)cc1` [Example 57, 8-(2-Methanesulfonyl-benzenesulfonyl)-2-(4-propyl-phenyl)-2,8-diaza-spiro[4.5]decan-1-one] the value was 140 nM.
Then `CNc1ncccc1S(=O)(=O)N1CCC2(CCN(c3ccc(OC(F)(F)F)cc3)C2=O)CC1` [Example 189, 8-(2-Methylamino-pyridine-3-sulfonyl)-2-(4-trifluoromethoxy-phenyl)-2,8-diaza-spiro[4.5]decan-1-one], with 30 nM; and `O=C1N(c2ccc(OC(F)(F)F)cc2)CCC12CCN(S(=O)(=O)c1ccncc1)CC2` [Example 203, 8-(Pyridine-4-sulfonyl)-2-(4-trifluoromethoxy-phenyl)-2,8-diaza-spiro[4.5]decan-1-one], with 250 nM; and `CS(=O)(=O)c1ccccc1S(=O)(=O)N1CCC2(CCN(c3ccc(OC(F)(F)F)cc3)C2=O)CC1` [Example 51, 8-(2-Methanesulfonyl-benzenesulfonyl)-2-(4-trifluoromethoxy-phenyl)-2,8-diaza-spiro[4.5]decan-1-one], with 140 nM.
Then `O=C1N(c2ccc(OC(F)(F)F)cc2)CCC12CCN(S(=O)(=O)N1CCOCC1)CC2` [Example 8, 8-(Morpholine-4-sulfonyl)-2-(4-trifluoromethoxy-phenyl)-2,8-diaza-spiro[4.5]decan-1-one], with 90 nM; and `CN(CCc1ccccn1)C(=O)N1CCC2(CC1)CCN(c1ccc(OC(F)(F)F)cc1)C2=O` [Example 283, 1-Oxo-2-(4-trifluoromethoxy-phenyl)-2,8-diaza-spiro[4.5]decane-8-carboxylic acid methyl-(2-pyridin-2-yl-ethyl)-amide], with 140 nM.
On to `O=C1N(c2ccc(OCC(F)(F)F)cc2)CCC12CCN(S(=O)(=O)c1cccnc1Cl)CC2` [Example 206, 8-(2-Chloro-pyridine-3-sulfonyl)-2-[4-(2,2,2-trifluoro-ethoxy)-phenyl]-2,8-diaza-spiro[4.5]decan-1-one], for which the concentration for half-maximal inhibition (IC50) turned out to be 30 nM.
For `Cc1ccc(S(=O)(=O)N2CCC3(CCN(c4ccc(OC(F)(F)F)cc4)C3=O)CC2)s1` [Example 42, 8-(5-Methyl-thiophene-2-sulfonyl)-2-(4-trifluoromethoxy-phenyl)-2,8-diaza-spiro[4.5]decan-1-one] the value was 40 nM; for `O=C1N(c2ccc(C(O)C(F)(F)F)cc2)CCC12CCN(S(=O)(=O)c1ccccc1Cl)CC2` (stereo not shown) [Example 152, 8-(2-Chloro-benzenesulfonyl)-2-[4-(2,2,2-trifluoro-1-hydroxy-ethyl)-phenyl]-2,8-diaza-spiro[4.5]decan-1-one], 20 nM; for `Cc1nc(C(=O)N2CCC3(CC2)CCN(c2ccc(OC(F)(F)F)cc2)C3=O)cs1` [Example 224, 8-(2-Methyl-thiazole-4-carbonyl)-2-(4-trifluoromethoxy-phenyl)-2,8-diaza-spiro[4.5]decan-1-one], 820 nM.
Then `O=C1N(c2ccc(I)cc2)CCC12CCN(S(=O)(=O)c1ccccc1OC(F)(F)F)CC2` [Example 104, 2-(4-Iodo-phenyl)-8-(2-trifluoromethoxy-benzenesulfonyl)-2,8-diaza-spiro[4.5]decan-1-one], with 40 nM; and `Cc1nn(C)c(C)c1S(=O)(=O)N1CCC2(CCN(c3ccc(OC(F)(F)F)cc3)C2=O)CC1` [Example 180, 2-(4-Trifluoromethoxy-phenyl)-8-(1,3,5-trimethyl-1H-pyrazole-4-sulfonyl)-2,8-diaza-spiro[4.5]decan-1-one], with 60 nM.
For `O=C1N(c2ccc(C3(O)CCC3)cc2)CCC12CCN(S(=O)(=O)c1ccccc1Cl)CC2` [Example 231, 8-(2-Chloro-benzenesulfonyl)-2-[4-(1-hydroxy-cyclobutyl)-phenyl]-2,8-diaza-spiro[4.5]decan-1-one] the value was 20 nM; for `CC(C)(C)CC(=O)N1CCC2(CC1)CCN(c1ccc(C(O)C(F)F)cc1)C2=O` (stereo not shown) [Example 178, 2-(4-(2,2-difluoro-1-hydroxyethyl)phenyl)-8-(3,3-dimethylbutanoyl)-2,8-diazaspiro[4.5]decan-1-one], 640 nM.

Source of the values: patent publication US8329904B2, “Azacyclic derivatives” (Hoffmann-La Roche Inc., priority 2009, dated 2012).
